Results reported in PubChem BioAssay AID2060622 (Molecular Pharmacology Branch, DTP, NCI, 2025).

Test system: 242566-281-R-J2-PDC complex spheroid viability
Assay: Anticancer human tumor 242566-281-R-J2-PDC patient-derived pancreatic carcinoma cell line growth inhibition [CLK]
Settings: for IC50: curve of first compound; for viability, T/C: stronger effect = lower value
How it was run: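 Multi-cell-type spheroids combined patient-derived tumor cells with HUVEC endothelial cells and human mesenchymal stem cells. Paired agents were dosed in half-log steps down from about clinical Cmax, or from 10 microM where Cmax was unknown.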
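Note: spheroids exposed to compounds for 7 days before readout.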
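Throughout, for viability, T/C: 100% = DMSO vehicle control wells.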

SMILES: C=CC(=O)Nc1cc(Nc2nccc(-c3cn(C)c4ccccc34)n2)c(OC)cc1N(C)CCN(C)C + CN1CCN(c2cc(C(=O)Nc3cc4cc(-c5cnn(C)c5)ccc4cn3)ccn2)CC1
- IC50 (second compound 0.0316 µM): > 300 nM
- IC50 (second compound 0.1 µM): > 300 nM
- IC50 (second compound 0.316 µM): < 0.949 nM
- IC50 (second compound 1 µM): < 0.949 nM
- IC50 (second compound 3.16 µM): < 0.949 nM
- IC50 (second compound 10 µM): < 0.949 nM
- viability, T/C (second compound 0.0316 µM, first compound 0.000949 µM): 92.7%
- viability, T/C (second compound 0.0316 µM, first compound 0.003 µM): 103%
- viability, T/C (second compound 0.0316 µM, first compound 0.00949 µM): 91.8%
- viability, T/C (second compound 0.0316 µM, first compound 0.03 µM): 96.7%
- viability, T/C (second compound 0.0316 µM, first compound 0.0949 µM): 95.1%
- viability, T/C (second compound 0.0316 µM, first compound 0.3 µM): 71.8%
- viability, T/C (second compound 0.1 µM, first compound 0.000949 µM): 102%
- viability, T/C (second compound 0.1 µM, first compound 0.003 µM): 85.8%
- viability, T/C (second compound 0.1 µM, first compound 0.00949 µM): 84.2%
- viability, T/C (second compound 0.1 µM, first compound 0.03 µM): 73.6%
- viability, T/C (second compound 0.1 µM, first compound 0.0949 µM): 79.8%
- viability, T/C (second compound 0.1 µM, first compound 0.3 µM): 62.9%
- viability, T/C (second compound 0.316 µM, first compound 0.000949 µM): 32.1%
- viability, T/C (second compound 0.316 µM, first compound 0.003 µM): 33.7%
- viability, T/C (second compound 0.316 µM, first compound 0.00949 µM): 27.7%
- viability, T/C (second compound 0.316 µM, first compound 0.03 µM): 23%
- viability, T/C (second compound 0.316 µM, first compound 0.0949 µM): 25.2%
- viability, T/C (second compound 0.316 µM, first compound 0.3 µM): 20.1%
- viability, T/C (second compound 1 µM, first compound 0.000949 µM): 4.67%
- viability, T/C (second compound 1 µM, first compound 0.003 µM): 4.02%
- viability, T/C (second compound 1 µM, first compound 0.00949 µM): 4.33%
- viability, T/C (second compound 1 µM, first compound 0.03 µM): 3.28%
- viability, T/C (second compound 1 µM, first compound 0.0949 µM): 2.72%
- viability, T/C (second compound 1 µM, first compound 0.3 µM): 2.12%
- viability, T/C (second compound 3.16 µM, first compound 0.000949 µM): 6.9%
- viability, T/C (second compound 3.16 µM, first compound 0.003 µM): 6.41%
- viability, T/C (second compound 3.16 µM, first compound 0.00949 µM): 6.23%
- viability, T/C (second compound 3.16 µM, first compound 0.03 µM): 6.27%
- viability, T/C (second compound 3.16 µM, first compound 0.0949 µM): 5.66%
- viability, T/C (second compound 3.16 µM, first compound 0.3 µM): 4.09%
- viability, T/C (second compound 10 µM, first compound 0.000949 µM): 2.35%
- viability, T/C (second compound 10 µM, first compound 0.003 µM): 1.98%
- viability, T/C (second compound 10 µM, first compound 0.00949 µM): 1.72%
- viability, T/C (second compound 10 µM, first compound 0.03 µM): 2.34%
- viability, T/C (second compound 10 µM, first compound 0.0949 µM): 2.25%
- viability, T/C (second compound 10 µM, first compound 0.3 µM): 1.2%
